Experiment [1] concerns Clinical Isolates. In words: Reversal of Multi-Drug Resistance (MIC/FIC of antibiotics combined with compound 1). It counts as cell-based, Staphylococcus aureus. To be noted: for MIC: Staphylococcus aureus; for FIC (b): FIC of Compound 1 in combination with the antibiotic named as label; for FIC (a): FIC of the antibiotic = MIC in combination with Compound 1 / MIC alone; for Effect / MIC (a + b): antibiotic in combination with Compound 1. On the procedure: (§1) Assay Protocol: Protocol of Chung et al, (2001), with slight modifications, was followed. 5×10 MDR S. aureus cells were treated with 20 μg/mL of test compounds and incubated for 20 hours. Control cells were not exposed to any test compound and antibiotic. In 96-well plate, increasing concentration of antibiotics, along with the fixed concentration of test compounds were added. Inoculum of 5×10^5 cells was applied to all wells. The presence or absence of growth in all combination wells were noted visually and by using the dye Alamar blue.
(§2) Fractional inhibitory concentrations were calculated by the above cited formulae. • FIC of Antibiotic a (FICa)=MIC of Antibiotic a in combination/MIC of antibiotic a alone • FIC of Compound b (FICb)=MIC of Compound b in combination/MIC of compound b alone
(§3) The sum of Fractional Inhibitory Concentration (FICs) index of: (FICa)+(FICb)=(FICs)

Experiment [2] relates to EMRSA-17. The experiment is described as above. It counts as cell-based, Staphylococcus aureus. The following applies: for MIC: Staphylococcus aureus; for FIC (s): FIC (a) + FIC (b), antibiotic plus Compound 1; for FIC (b): FIC of Compound 1 in combination with the antibiotic named as label; for FIC (a): FIC of the antibiotic = MIC in combination with Compound 1 / MIC alone; for Effect / MIC (a + b): antibiotic in combination with Compound 1. Here is the method:
as §1, §2, §3

The test system of experiment [3] is Clinical Isolates. In words: Lucigenin CL assay of Reactive Oxygen Species (O2-) production. It is filed as cell-based, Staphylococcus aureus. To be noted: different concentrations, RLU. Here is the method:
(§4) Assay Protocol: Protocol of Albesa et al (2002) was followed with slight modifications. 5×10^5 Cells were treated with the different concentrations of test compounds. Cells with compounds were incubated with leueigenin and filtered phosphate buffer saline. DMSO was added to the each well at the time of RLU determination to trigger the reaction. […] Positive control contains DMSO, but not the test compound. Determination by chemiluminescence (CL) was performed at room temperature by luminometer. The light emission results were measured in relative light unit (RLU).

Experiment [4] has as its system EMRSA-17. The experiment is described as above. It counts as cell-based, Staphylococcus aureus. To be noted: different concentrations, RLU. Here is the method:
as §4

Experiment [5] deals with MDR Efflux Pumps of EMRSA-17. Nature of the experiment: EtBr accumulation/efflux flow cytometry assay. It counts as cell-based, Staphylococcus aureus. To be noted: compound 1 in combination with antibiotics, 3 hrs, FL2. Here is the method:
(§5) Assay Protocol: Protocol of Kalle et al, (2009) was employed with some modifications. Control cells were not exposed with any test compound or antibiotic. Combination of test compound and antibiotics were incubated for 3 hrs in test cells. Ethiduim bromide (EtBr) was added in to the Eppendorff, containing the combination of both drugs and compound. Cells with the drugs were also incubated and stained with EtBr. Control and treated samples were centrifuged for 3 min at 13,000 rpm. Supernatant was […] and the pallet was washed with PBS. Positive control contains ethidium bromide, while negative control was EtBr free. Flow cytometric analysis was carried out done by using the FL2 channel.
(§6) Flow cytometry data acquisition: The flow cytometric assay was performed. A total of 50,000 cells were counted by using Cell Quest software (BD) for data acquisition and analysis. EtBr was excited at 488 nm and the fluorescence detected through a 585 nm filter (FL-2 channel).
For orientation: A flow cytometer gives signals particle by particle.

For experiment [6], the system named is MDR Efflux Pumps of clinical isolates. Nature of the experiment: EtBr accumulation/efflux flow cytometry assay. It is filed as cell-based, Staphylococcus aureus. The following applies: compound 1 in combination with antibiotics, 3 hrs, FL2. Here is the method: as §5, §6
For another experiment, the system named is clinical isolate. In words: Membrane potential and integrity, DiBAC4(3) flow cytometry. It counts as cell-based, Staphylococcus aureus. To be noted: 20 μg/mL, 20 hrs, flow cytometry FL1. Here is the method:
(§7) Compound Treatment: 5×10^5 MDR S. aureus cells were treated with 20 μg/mL of test compounds and incubated for 20 hours, while the control cells were incubated without test compound.
(§8) Cell Staining: Staining procedure of Jepras et al. (1997) was adapted with slight modifications. Stock solutions (1 mg/mL) for the membrane potential probe DiBAC4(3) were made in absolute ethanol and stored at −20 ° C. […] Samples (1 mL) of exponentially growing S. aureus were taken from broth cultures. Samples were centrifuged at 11,000 rpm for 2 min and the supernatant was discarded. Cell pellets were resuspended in 4 mL of filtered phosphate-buffered saline (PBS). Fluorogenic substrates DiBAC4(3) were added to the cell suspensions to obtain a final concentration of 10 μg/mL. The suspensions were then incubated at 37° C. for 30 min. Cells were washed by centrifugation in the PBS buffer and then analyzed by flow cytometry.
(§9) Flow cytometry data acquisition: The flow cytometric assay was performed on a Becton Dickinson FACSCaliber™ flow cytometer. A total of 50,000 cells were counted by using Cell Quest software (BD) for data acquisition and analysis. The emission maximum of DiBAC4(3) was at 516 nm and its green fluorescence was detected in the channel FL1 (Veal et al., 2000).

Experiment [7] has as its system EMRSA-17. Described as above. To be noted: 20 μg/mL, 20 hrs, flow cytometry FL1. It is filed as cell-based, Staphylococcus aureus. On the procedure:
as §7, §8, §9

The test system of another experiment is MRSA-252. In words: High throughput screening assay (MABA) against MDR S. aureus. It counts as cell-based. To be noted: Staphylococcus aureus, 20 μg/mL, 20 hours, Alamar Blue. On the procedure:
(§10) High throughput screening assay (MABA) against MDR S. aureus:
(§11) Inocula Preparation: Isolated colonies of S. aureus were picked and inoculated into Muller Hinton broth and incubated at 37° C. for 20 hours. After 20 hours, the turbidity was checked and adjusted to 0.5 McFarland standards.
(§12) Assay Protocol: Assays were performed according to method reported by Sarkar et al. (2007) with slight modifications. Flat bottom, polystyrene, non-tissue culture treated, sterile 96-well micro titer plates were used with proper labeling. Stock solutions of test compounds 1 and 2 were prepared in DMSO with the concentration of 1 mg/mL. 4 μL from stock solutions were distributed in each well, except the control wells of the plate. Two fold serial dilutions using sterile broth were made with the final volume of […], in each well. The bacterial suspensions (cone 5×10^5) were then added in each wells. The plate was sealed by parafilm and incubated at 37° C. for 20 hours. The plates were prepared in triplicate. Next day, 10% Alamar Blue Dye was added to the culture and kept on shaking incubator at 37° C. for 3 to 4 hours. The color change was then assessed visually, qualitatively and quantitatively by recording absorbance at 570 and 600 nm by a spectrophotometer. The percentage inhibition of compound 1 and 2 against EMRSA-16, and 17, MRSA-252 and clinical isolate by MABA assays are given in Table 1.
(§13) Percentage reduction and inhibition of Alamar blue dye was calculated by using the following formula.
(§14) Here control wells contain only media plus Alamar Blue, while the test wells contains both Alamar Blue with the test compounds.

A further experiment concerns EMRSA-16. The description is as above. It is filed as cell-based. The following applies: Staphylococcus aureus, 20 μg/mL, 20 hours, Alamar Blue. Here is the method: as §10, §11, §12, §13, §14
(In general: Resazurin is reduced to fluorescent resorufin, in cell work by metabolically active cells.)

The test system of experiment [8] is Clinical Isolates. The description is as above. The following applies: Staphylococcus aureus, 20 μg/mL, 20 hours, Alamar Blue. It counts as cell-based. On the procedure:
as §10, §11, §12, §13, §14

In experiment [9] the test system is EMRSA-17. The experiment is described as above. It counts as cell-based. To be noted: Staphylococcus aureus, 20 μg/mL, 20 hours, Alamar Blue. Here is the method: as §10, §11, §12, §13, §14
Setting [10] is: Compound 1 alone, read-out: MIC (b).
Where [11] appears, read: antibiotic alone, read-out: MIC (a).

Experimental findings from patent publication US8889733B2, “Artonin I to treat resistant infectious Staphylococcus aureus” (priority 2013, dated 2014) are described below.

Like-named read-outs stand apart in the source and are kept apart here.

What is called MIC is the least concentration at which growth counts as inhibited. What is called inhibition is the percentage by which the read-out fell short of the control. Read a high inhibition as a response far below the control. For `CC(C)=CCc1c(O)ccc(C(=O)[C@@H]2C(c3ccc(O)cc3O)CC(C)=C[C@@H]2c2c(O)cc3oc(-c4ccc(O)cc4O)cc(=O)c3c2O)c1O` (stereo partly shown) [Compound 1, artonin I], the minimum inhibitory concentration (MIC) in the experiment with Clinical Isolates [1] (setting [10]) and with EMRSA-17 [2] (setting [10]) was 25 µg/mL in each case. The “production of O2- (ROS), lucigenin chemiluminescence” value with Clinical Isolates [3] and with EMRSA-17 [4] was “more production of O2^− was observed” in each case. The “efflux activity, EtBr accumulation” value in experiment [5] and in experiment [6] was “decrease in the efflux activity was observed” throughout. Also, the “membrane potential and integrity, DiBAC4(3) fluorescence” value was “bulky peaks steadily moved towards the area of increasing fluorescence” with clinical isolate and “majority of population was shifted in a rapid regular pattern due to the change in membrane potential” in the experiment with EMRSA-17 [7]. For the same molecule, the inhibition at 20 µg/mL with MRSA-252 turned out to be 69.4%; in the experiment with EMRSA-16, 88.7%; in the experiment on Clinical Isolates [8], 88.9%; with EMRSA-17 [9] it was 91.1%.
Gentamicin: the “FIC (s)” value in the experiment with Clinical Isolates [1] (FIC (a) + FIC (b), antibiotic plus Compound 1) was 0.3356. Further, in the experiment with Clinical Isolates [1], the “FIC (b)” value is recorded as 0.320, the “FIC (a)” value is given as 0.0156, the Effect result is listed as “Synergistic” and the “MIC (a + b)” value came to 8 µg/mL. Moreover, in the experiment on Clinical Isolates [1] (antibiotic alone), the “MIC (a)” value was determined as 512 µg/mL. Further, in the experiment on EMRSA-17 [2], the FIC (s) worked out at 0.164, the FIC (b) came out at 0.16, the “FIC (a)” value was determined as 0.0039 and the Effect result is reported as “Synergistic”. Further, the “MIC (a + b)” value in the experiment with EMRSA-17 [2] came to 4 µg/mL. Moreover, the “MIC (a)” value in the experiment on EMRSA-17 [2] (antibiotic alone) is 512 µg/mL.
For `CC[C@H]1OC(=O)[C@H](C)[C@@H](O[C@H]2C[C@@](C)(OC)[C@@H](O)[C@H](C)O2)[C@H](C)[C@@H](O[C@@H]2O[C@H](C)C[C@H](N(C)C)[C@H]2O)[C@](C)(O)C[C@@H](C)C(=O)[C@H](C)[C@@H](O)[C@]1(C)O` [Erythromycin], the MIC in the experiment on Clinical Isolates [1] (setting [11]) amounted to 2050 µg/mL. Moreover, in the experiment with Clinical Isolates [1], the Effect entry was “Synergistic” and the “MIC (a + b)” value stood at 8 µg/mL. Also, in the experiment with EMRSA-17 [2], the FIC (s) is 0.324, the FIC (b) is 0.32, the Effect result is given as “Synergistic” and the “MIC (a + b)” value was determined as 8 µg/mL. Besides, the MIC in the experiment on EMRSA-17 [2] (setting [11]) came out at 1020 µg/mL.
Turning to Neomycin, in the experiment with Clinical Isolates [1], the “FIC (b)” value worked out at 0.320, the “FIC (a)” value is 0.0078, the Effect result was “Synergistic” and the “MIC (a + b)” value was found to be 8 µg/mL. For the same molecule, in the experiment on EMRSA-17 [2], the FIC (s) amounted to 0.336, the FIC (b) is 0.32, the “FIC (a)” value was 0.1562 and the Effect result is given as “Synergistic”. Besides, the “MIC (a + b)” value in the experiment with EMRSA-17 [2] came out at 8 µg/mL. The “MIC (a)” value in the experiment with EMRSA-17 [2] (antibiotic alone) stood at 512 µg/mL. Besides, the “MIC (a)” value in the experiment with EMRSA-17 [2] (antibiotic alone, listed as neomycin) is 256 µg/mL.
